One compound from article PMC6264278, “Corydaline Inhibits Multiple Cytochrome P450 and UDP-Glucuronosyltransferase Enzyme Activities in Human Liver Microsomes” (Molecules, 2011) can be followed below.

This test deals with T1, UGT1A1 (Homo sapiens, UniProt P22309).
T1 construct: using pooled human liver microsomes; tissue BD Gentest Co. H161; host or cells: pooled human liver microsomes
T1 sequence (P22309 26-533): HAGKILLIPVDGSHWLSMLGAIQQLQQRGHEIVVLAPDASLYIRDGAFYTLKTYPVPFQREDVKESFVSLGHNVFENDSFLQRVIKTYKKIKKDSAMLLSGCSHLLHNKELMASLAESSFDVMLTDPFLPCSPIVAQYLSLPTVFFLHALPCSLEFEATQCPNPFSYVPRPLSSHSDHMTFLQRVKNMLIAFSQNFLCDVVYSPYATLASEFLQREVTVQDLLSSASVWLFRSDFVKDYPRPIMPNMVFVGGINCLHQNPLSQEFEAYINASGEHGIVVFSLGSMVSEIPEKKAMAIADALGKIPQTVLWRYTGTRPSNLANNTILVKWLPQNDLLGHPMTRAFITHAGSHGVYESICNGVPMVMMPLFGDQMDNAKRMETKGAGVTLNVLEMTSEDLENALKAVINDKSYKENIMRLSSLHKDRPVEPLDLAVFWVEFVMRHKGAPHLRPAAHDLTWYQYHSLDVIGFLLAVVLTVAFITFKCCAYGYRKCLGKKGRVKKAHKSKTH
In words: UGT1A1 17β-estradiol 3-glucuronidation inhibition in pooled human liver microsomes. The test is classed as in vitro ADME. The protocol:
The inhibitory potencies (IC50 values) of corydaline were also determined with UGT assays in the presence and absence of corydaline (final concentrations of 1–1,000 μM with acetonitrile concentration less than 0.5% v/v) using pooled human liver microsomes. 17β-Estradiol 3-glucuronidation, trifluoperazine glucuronidation, propofol glucuronidation, and azidothymidine glucuronidation activities were determined as probe activities for UGT1A1, UGT1A4, UGT1A9, and UGT2B7, respectively, using LC/MS/MS. Incubation mixtures were prepared in a total volume of 100 μL, as follows: Pooled human liver microsomes (0.2 mg/mL for 17β-estradiol, trifluoperazine and azidothymidine; 0.1 mg/mL for propofol), 2 mM UDPGA, 25 μg/mL alamethicin, 10 mM MgCl2, 50 mM tris buffer (pH 7.4), UGT-isoform specific probe substrate (20 μM 17β-estradiol for UGT1A1, 5 μM trifluoperazine for UGT1A4, 10 μM propofol for UGT1A9, or 100 μM azidothymidine for UGT2B7), and various concentrations of corydaline (1−1000 μM). Reactions were initiated by addition of UDPGA, and incubations were carried out at 37 °C in a shaking water bath for 30 min. […]
Glucuronides produced from UGT isoform-specific substrates were respectively determined by LC/MS/MS. […] Quantification was performed by SRM of the [M+H]^+ ion for trifluoperazine glucuronide and azidothymidine glucuronide or [M−H]^− for 17β-estradiol 3-glucuronide and propofol glucuronide and the related product ion for each metabolite.
Reactions were initiated by addition of NADPH at 37 °C and stopped after 15 min by placement of the incubation tubes on ice and addition of ice-cold methanol (100 μL) containing an internal standard (2.0 μg/mL ^13C6-4-hydroxydiclofenac for diclofenac, 0.5 μg/mL d3-4-hydroxymephenytoin for mephenytoin, or 0.5 μg/mL d9-1-hydroxy-bufuralol for bufuralol). The incubation mixtures were centrifuged at 13,000 × g for 5 min, and aliquots (5 μL) of the supernatants were analyzed by LC/MS/MS. […] Aliquots (5 μL) were analyzed by LC/MS/MS. […]
For orientation: Liver microsomes are vesicles of endoplasmic reticulum, rich in cytochrome P450 enzymes.

Take `COc1cc2c(cc1OC)C1C(C)c3ccc(OC)c(OC)c3CN1CC2` (stereo not drawn) [Corydaline, 2,3,9,10-tetramethoxy-13-methyl-5,8,13,13a-tetrahydro-6H-isoquino[3,2-a]isoquinoline]: for the setting “human liver microsomes, 10-80 μM 17β-estradiol, mixed competitive-noncompetitive equation”, the inhibition constant Ki was found to be 57.6 ± 13 µM. Moreover, the “α (mix of competitive and noncompetitive mechanisms), UGT1A1 17β-estradiol 3-glucuronidation” value (mixed competitive-noncompetitive equation, nonlinear regression) was found to be 0.555. This compound showed an IC50 (pooled human liver microsomes (H161), 20 μM 17β-estradiol, mean ± SD, n = 3) of 137 ± 16.2 µM.

Usually Ki stands for a measure of affinity in units of concentration, obtained from inhibition or displacement. A high value points to lower affinity. As a reminder, the IC50 is the point on the concentration scale where inhibition reaches its midpoint. Lower therefore signals higher potency.
